Laboratory results: PMC2761383, “Structural and functional characteristics of xenavidin, the first frog avidin from Xenopus tropicalis” (BMC Structural Biology, 2009)

Assays:
[1] = Optical biosensor analysis (Biacore X) of 2-iminobiotin binding
From the text: The Biacore X optical biosensor instrument was used in the analysis, where the CM5 sensor chip was functionalized with 2-iminobiotin. The functionalization of the chip was done in three phases: First, the carboxymethyl dextrane was activated using a mixture containing 0.2 M EDC (1-ethyl-3-(3-dimethylaminopropyl) carbodiimide hydrochloride) and 0.05 M NHS (N-hydroxysuccinimide) in water. Second, in order to introduce amino groups to the surface, 1 M ethylenediamine (Fluka 03550) in water was applied. Third, a mixture of EDC (0.2 M) and 2-iminobiotin (10 mM) was applied on the surface in 25 mM Na-phosphate pH 6.5. The amount of 2-iminobiotin attached on the surface was 81 response units.
Xenavidin was injected onto the sensor chip in a 50 mM sodium carbonate buffer (pH 11.0) containing 1 M NaCl at 25°C and using a flow rate of 50 μl/min. […] The surface was regenerated between measurement cycles by injecting 20 μl of 0.5 M acetic acid followed by washing with the measurement buffer.
BIAevaluation software v. 4.1 was used for data analysis, and a global fitting method was used to analyze the data set. A period of 20 seconds from the beginning of each injection was included in the association phase fit and the dissociation rate analysis was performed for a 60-second period starting immediately after the end of the injection.

[2] = Fluorescence spectroscopy dissociation analysis of fluorescent Bf560-biotin; type: binding
Experimental: The Quanta Master™ spectrofluorometer (Photon Technology International Inc., Lawrenceville, NJ) with a PTI Fluorescence Master System and the software Felix 32 was used to measure the biotin-binding properties of avidin, xenavidin and streptavidin. The analyses were done in a 50 mM sodium phosphate buffer (pH 7.0) containing 650 mM NaCl at two different temperatures (25 ± 1°C and 50 ± 1°C) by measuring the reversing of quenching of the biotin-coupled fluorescent probe ArcDia™ Bf560 (ArcDia Ltd., Turku, Finland) due to competition with free biotin (100-fold molar excess) as previously described. The spectrum of Bf560-biotin in the presence and absence of avidin is shown in [Additional file 4].

proteinase K = experiment: Limited proteolysis with proteinase K
Experimental: The stability of xenavidin against the proteinase K enzyme, which is known to cleave the L3,4-loop of avidin [41], was tested. The assay was performed in the presence or absence of biotin as previously described by Laitinen et al.. Protein samples were taken before the enzyme treatment and after adding enzyme at time points 30 min, 1 h, 2 h, 3 h, 18 h and 22 h (data not shown), and the samples were analyzed using SDS-PAGE analysis and Coomassie Brilliant Blue (Serva, Heidelberg, Germany) staining.

[3] = 2-iminobiotin chip, pH 11.0, 1 M NaCl, 25°C
[4] = competition with free biotin (100-fold molar excess), pH 7.0

## Streptavidin: bacterial biotin-binding protein from Streptomyces avidinii (Biomol GmbH); control sample
[1]; [3]
  Kd: 85 nM
  kass: 200000 M⁻¹ s⁻¹
  kdiss: 0.017 s⁻¹
[2]; [4]
  Dissociation rate constant at 50°C: 0.7 s^-1 (× 10^-5)
[2]
  Release after 1 h at 50°C: 5.1%

## Avidin: chicken avidin, biotin-binding protein; control sample expressed in E. coli
[1]; [3]
  Kd: 102 nM
  kass: 94000 M⁻¹ s⁻¹
  kdiss: 0.0096 s⁻¹
[1]; 2-iminobiotin functionalized chip, rounded value
  Kd: 100 nM
[2]; 25°C, competition with free biotin (100-fold molar excess), pH 7.0
  Dissociation rate constant at 25°C: 2.3 s^-1 (× 10^-5)
[2]; [4]
  Dissociation rate constant at 50°C: 32.6 s^-1 (× 10^-5)
[2]
  Release after 1 h at 50°C: 76.5%
Proteinase K; absence of biotin
  stability against proteinase K: fragments of 10 kDa and below
Proteinase K; presence of biotin
  stability against proteinase K: protected avidin from proteolytic cleavage
